Experimental data as given in patent US20230348518A1 (priority 2020, published 2023).
“Also recorded” adds a separate entry of the source.

How the values were obtained:
HeLa cells = conditions: supra-physiologic doses; cited from earlier work
human CMG helicase [1] = tested on: T1, human CMG helicase; experiment: fluorescent-polarization (FP) assay measuring ADP production; format: biochemical; conditions: for CMG activity inhibited: 1 mM, fluorescence-polarization assay; for inhibition of CMG helicase in fluorescent-polarization assay: FIG. 3
T1 construct: made in house; host or cells: insect cells (Sf9), baculoviruses
Text: (§1) We have focused on the enzymatic ATP hydrolysis steps used by the core MCM hexamers of the CMG helicase to identify ATP competitive inhibitors of […] and/or hydrolysis within one or more of the MCM hexamer pairs. To do this, we established a means to express and purify the human CMG helicase in our lab, and then we verified the isolated CMG is active in DNA unwinding assays. We then set up a novel assay to quantitatively measure ATP hydrolysis (ADP production) by the human CMG. This assay used reagents that are sensitive enough to read small changes in ADP production from our functioning CMG helicase in an in vitro biochemical enzyme assay. This assay relies on reading fluorescent-polarization (FP) changes from an antibody that binds to an ADP-fluorophore molecule that is displaced when the CMG produces ADP on its own. The results are obtained using a Perkin-Elmer Envision II FP plate reader. This approach is referred to as our primary screening assay. Our secondary screening assay, which is lower through-put, uses a traditional radioactive-based DNA fork unwinding method of analysis to verify whether a given potential CMGi is truly capable of inhibiting CMG elongation along DNA and subsequent fork unwinding.
The components for the assay used for ATP hydrolysis measurements of the hCMG are produced by BellBrook Labs, and the kit is called the ADP2 Transcreener™ FP Assay. […] As shown in FIGS. 10A-10B, the hCMG is incubated with ATP, buffer, and non-radioactive fork substrates for a determined length of time to allow hCMG activity to occur (or not, if an inhibitor is present). This produces ADP, which is recognized by the FP assay when free ADP competes an ADP-fluor off of a patented antibody that binds ADP with high affinity. […] But this polarity is reduced in a quantitative manner depending on the presence of free ADP (produced by the hCMG here), once the ADP-fluor is released from the antibody. Noteworthy, the fluor (Alexa 633) used here is in the far-red spectrum, which reduces problems during screening that can (likely) occur when chemicals themselves emit red or green wavelengths that interfere with plate reader steps (can give false positives). The system is very sensitive to even small changes in ADP production, being able to sense 0.5-2% changes quite easily (verified in our hands, using ADP-ATP standard curves). Low substrate conversion to ADP can be detected with a Z′-factor≥0.7 at 2.5% ATP conversion. The latter is achieved with a read time of less than 5 minutes. Signal stability is greater than 24 hr, and ADP-FP reagents are stable at RT for 8 hrs and tolerate 1% DMSO. Light output is also stable in the presence of up to 10% DMSO, DMF, ethanol, acetonitrile, or methanol solvents. ATP starting concentrations can be within the range of 0.1-1000 μM, and our hCMG enzyme requires 500 μM ATP for functioning near its published Km, which has been verified applies to the hCMG preparations (not shown).
Since hCMG is purified, feasibility testing of the FP assay was performed with the hCMG (FIGS. 10A-10B). Cubes, filters, and mirrors for dual-FP analysis were obtained using PE Envision II equipment, and such items were verified as functional. A window for change in millipolarizations (AmP window) is established with reagents alone, and the amount of patented antibody needed to achieve an optimal window is pre-determined in pilot titration assays using ATP at the required 500 μM level. […] Using formulas BellBrook Labs supplies for their reagents, it was also calculated that the assay was working with a Z′-factor of >0.6 (calculations not shown). Optimal ΔmP can be as high as 80% change (EC80). Achieving this will also increase our Z′-factor to 0.8-0.9.

human CMG (hCMG) = tested on: T2, human CMG (hCMG); experiment: human CMG biochemical assays (primary and secondary), format not specified; conditions: for inhibition of the human CMG in biochemical assays (primary and secondary): in vitro
T2 construct: made in house; host or cells: insect cells (Sf9), baculoviruses
Text: as §1

human CMG helicase [2] = tested on: T1, human CMG helicase; experiment: radioactive DNA fork unwinding helicase assay; format: biochemical; conditions: for inhibition of CMG activity in fork unwinding assay: 0.5 mM, 30 minutes at 37 degrees Celsius, compared to Novobiocin; for inhibition of human CMG helicase in fork unwinding assay: in vitro, FIG. 2
Text: as §1
The human CMG helicase assay was performed with purified CMG before glycerol gradient centrifugation. Novobiocin (Compound A), Clorobiocin (Compound D), and Coumermycin A1 (Compound B) were incubated with 2 μL human CMG and 1 μL ^32P-labeled DNA forks for 30 minutes at 37 degrees Celsius. The reactions were stopped with 6× loading buffer, separated in 10% PAGE, and dried on filter paper followed by autoradiography.
(§2) For feasibility of this example, it is shown that sufficient quantities of enzymatically active hCMG can be purified using an established approach (FIGS. 9A-9D). This method of hCMG purification was previously devised by the Hurwitz lab and involves the co-expression of all 11 subunits of the hCMG using baculoviruses and insect cells, followed by a five-step chromatography-based enrichment scheme. The steps of the purification are outlined in FIG. 9A, with Westerns on isolated fractions used to assess the completeness of hCMG subunits and enzyme recovered after the final glycerol gradient step (FIG. 9B). […] Activity is measured using a classical fork-unwinding helicase assay that relies on radioactive forks being separated, and ssDNA being recognized and quantifiable in gels using PhosphorImager analyses (FIG. 9D). SV40-derived Tag helicase was also purified as a positive control, and our active hCMG is close in forkunwinding output to that of TAg. […] Given that multiple fractions produce active hCMG, this provides ample quantities of hCMG to design, calibrate, and test a workflow for hCMG chemical screening. […]

multiple tumor types = experiment: sensitivity of multiple tumor types; format: cell-based; conditions: low doses, FIG. 17
[3] = tested on: DNA damage / Parp cleavage in tumor cells; experiment: DNA damage and Parp cleavage in cells; format: cell-based; conditions: tumor cells versus Hacat
[4] = target: T3, Simian virus 40 (SV40) large-T-antigen (Tag) DNA helicase (Simian virus 40, UniProt P03070); experiment: classic fork unwinding assay; format: biochemical; conditions: in vitro, FIG. 2 and titration FIG. 11
T3 construct: made in house
T3 sequence (P03070 whole entry): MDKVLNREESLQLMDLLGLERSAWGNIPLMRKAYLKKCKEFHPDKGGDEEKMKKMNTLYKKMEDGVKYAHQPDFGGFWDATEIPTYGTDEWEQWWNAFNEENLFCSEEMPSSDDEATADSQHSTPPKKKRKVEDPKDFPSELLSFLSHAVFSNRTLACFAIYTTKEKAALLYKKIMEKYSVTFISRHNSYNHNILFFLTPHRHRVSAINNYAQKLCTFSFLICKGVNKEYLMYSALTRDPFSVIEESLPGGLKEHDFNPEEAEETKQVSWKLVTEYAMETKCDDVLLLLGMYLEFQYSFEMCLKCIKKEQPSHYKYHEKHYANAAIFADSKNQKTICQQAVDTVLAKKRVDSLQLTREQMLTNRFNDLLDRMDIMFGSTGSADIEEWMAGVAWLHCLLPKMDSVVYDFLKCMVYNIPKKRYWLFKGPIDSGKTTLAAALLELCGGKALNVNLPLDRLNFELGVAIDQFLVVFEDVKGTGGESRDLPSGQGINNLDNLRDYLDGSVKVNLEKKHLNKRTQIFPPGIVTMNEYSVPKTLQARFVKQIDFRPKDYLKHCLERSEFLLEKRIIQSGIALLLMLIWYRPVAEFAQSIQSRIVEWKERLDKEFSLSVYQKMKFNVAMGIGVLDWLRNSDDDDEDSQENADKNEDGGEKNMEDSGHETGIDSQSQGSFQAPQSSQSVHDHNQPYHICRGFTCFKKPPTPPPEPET
Text: as §2, with “TAg. Each prep of hCMG thus obtained is giving us -5-10 fmol of hCMG per uL of glycerol gradient fraction, with fractions totaling 150-170 uL (3-4 fractions obtained with obvious hCMG; FIG. 9B). Only 1 uL hCMG is required to easily see activity using this method (FIG. 9D).” for “TAg.”

[5] = target: HPV18 E1 helicase (helicase domain only) (Human papillomavirus type 18, UniProt P06789); experiment: HPV18 E1 helicase inhibition; format: biochemical
Sequence of HPV18 E1 helicase (helicase domain only) (P06789 458-608 limits assumed): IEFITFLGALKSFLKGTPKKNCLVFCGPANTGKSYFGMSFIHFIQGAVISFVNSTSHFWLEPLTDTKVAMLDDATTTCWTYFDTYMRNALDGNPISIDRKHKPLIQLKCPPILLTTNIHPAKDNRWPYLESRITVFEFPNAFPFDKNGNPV

HPV16 E1 helicase [6] = target: HPV16 E1 helicase (Human papillomavirus type 16, UniProt P03114); experiment: HPV16 E1 helicase inhibition; format: biochemical; conditions: full-length
Sequence of HPV16 E1 helicase (Human papillomavirus type 16, UniProt P03114) (P03114 whole entry): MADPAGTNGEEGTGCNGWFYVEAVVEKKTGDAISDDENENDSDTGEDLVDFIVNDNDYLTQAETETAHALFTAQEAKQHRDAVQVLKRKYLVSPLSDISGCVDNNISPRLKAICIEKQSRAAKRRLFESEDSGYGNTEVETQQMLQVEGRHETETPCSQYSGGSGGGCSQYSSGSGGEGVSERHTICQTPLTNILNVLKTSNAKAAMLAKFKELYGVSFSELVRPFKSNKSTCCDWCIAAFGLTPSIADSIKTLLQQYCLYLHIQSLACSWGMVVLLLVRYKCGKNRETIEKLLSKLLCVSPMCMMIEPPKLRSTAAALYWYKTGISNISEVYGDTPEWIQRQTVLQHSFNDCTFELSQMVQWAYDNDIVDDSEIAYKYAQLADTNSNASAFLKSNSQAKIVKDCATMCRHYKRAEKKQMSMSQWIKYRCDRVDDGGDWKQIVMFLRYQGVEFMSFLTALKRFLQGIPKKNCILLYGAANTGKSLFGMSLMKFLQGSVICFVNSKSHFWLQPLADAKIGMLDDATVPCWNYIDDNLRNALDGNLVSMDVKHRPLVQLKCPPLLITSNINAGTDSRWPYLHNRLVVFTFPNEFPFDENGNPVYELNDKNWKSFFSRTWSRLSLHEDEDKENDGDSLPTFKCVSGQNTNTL

HPV16 E1 helicase [7] = experiment: HPV16 E1 helicase inhibition; format: biochemical; conditions: for inhibition of E1 helicase from HPV16: FIG. 12, construct not stated
[8] = tested on: Hacat non-tumor skin cells; experiment: sensitivity of non-tumor Hacat cells; format: cell-based; conditions: FIGS. 17 and 19
OS tumor cells = experiment: inhibition of osteosarcoma tumor cells; format: cell-based; conditions: FIGS. 14A-14F
[9] = target: HPV31 E1 helicase (full-length) (Human papillomavirus 31, UniProt P17382); experiment: HPV31 E1 helicase inhibition; format: biochemical
Sequence of HPV31 E1 helicase (full-length) (P17382 whole entry): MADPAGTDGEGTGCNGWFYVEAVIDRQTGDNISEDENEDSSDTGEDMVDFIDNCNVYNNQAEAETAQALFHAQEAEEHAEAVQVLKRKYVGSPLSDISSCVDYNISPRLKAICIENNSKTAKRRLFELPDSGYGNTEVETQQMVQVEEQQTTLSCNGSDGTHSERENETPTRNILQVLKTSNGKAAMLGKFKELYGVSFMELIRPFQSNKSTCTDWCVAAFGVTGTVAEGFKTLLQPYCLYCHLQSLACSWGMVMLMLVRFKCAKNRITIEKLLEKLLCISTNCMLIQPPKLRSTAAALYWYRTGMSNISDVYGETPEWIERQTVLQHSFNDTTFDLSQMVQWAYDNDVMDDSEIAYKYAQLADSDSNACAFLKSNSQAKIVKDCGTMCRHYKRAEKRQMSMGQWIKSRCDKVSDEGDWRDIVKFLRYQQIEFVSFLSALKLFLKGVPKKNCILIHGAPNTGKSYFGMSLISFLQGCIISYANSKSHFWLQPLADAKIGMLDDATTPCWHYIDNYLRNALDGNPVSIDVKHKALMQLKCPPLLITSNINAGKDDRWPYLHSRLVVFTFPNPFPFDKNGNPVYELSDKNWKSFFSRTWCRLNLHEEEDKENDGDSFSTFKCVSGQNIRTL

[10] = tested on: RPA loading onto DNA/chromatin in A549 NSCLC cells; experiment: RPA32 western blot of total cell extracts and chromatin-bound fractions; format: cell-based; conditions: A549 NSCLC cells, 0.1, 10, or 25 μM, 48 hours
Text: Cells were harvested and protein from each group isolated into total cell extracts (TCE) or chromatin-bound fractions. Standard SDS-PAGE followed by western blot was used to separate proteins and probe for RPA32 presence in TCE and bound chromatin. Actin serves as a loading control. […] There is also some toxicity of Coumermycin A1 (Compound B).

OS tumor = OS tumor growth in mice; format: in vivo
[11] = tested on: MCM assembly and activity; experiment: MCM assembly and activity in cells; format: cell-based; conditions: Hacat cells and OS tumor cells (143b)

SMILES | CMG activity inhibited (human CMG helicase [1]) [%] | inhibition of CMG helicase in fluorescent-polarization assay (human CMG helicase [1]) | inhibition of the human CMG in biochemical assays (primary and secondary) (human CMG (hCMG)) | inhibition of CMG activity in fork unwinding assay (human CMG helicase [2]) | inhibition of SV40 Tag helicase in fork unwinding assay [4] | inhibition of E1 helicase from HPV16 (HPV16 E1 helicase [7]) | inhibition of OS tumor cells versus non-tumor cells (Hacat) (OS tumor cells) | inhibition of human CMG helicase in fork unwinding assay (human CMG helicase [2]) | other results
O=C(O)c1cn(C2CC2)c2cc(N3CCNCC3)c(F)cc2c1=O [ciprofloxacin] |  |  |  |  |  |  |  |  | cell growth of HeLa cells (HeLa cells): stopped cell growth
CO[C@@H]1[C@@H](OC(=O)c2ccc(C)[nH]2)[C@@H](O)[C@H](Oc2ccc3c(O)c(NC(=O)c4ccc(O)c(CC=C(C)C)c4)c(=O)oc3c2Cl)OC1(C)C [clorobiocin] | 81.5 | inhibiting CMG helicase | very effectively inhibit the human CMG helicase in vitro; also recorded: effectively inhibit the human CMG | inhibit CMG activity |  |  |  |  | inhibition of human CMG (hCMG), dose dependence (human CMG (hCMG); FIG. 24): inhibits human CMG (hCMG) in a dose-dependent manner; inhibition of human CMG (hCMG) (human CMG (hCMG); direct comparison to novobiocin (500 uM), FIG. 25): inhibits human CMG (hCMG)
CO[C@@H]1[C@@H](OC(=O)c2ccc(C)[nH]2)[C@@H](O)[C@H](Oc2ccc3c(O)c(NC(=O)c4c[nH]c(C(=O)Nc5c(O)c6ccc(O[C@@H]7OC(C)(C)[C@H](OC)[C@@H](OC(=O)c8ccc(C)[nH]8)[C@H]7O)c(C)c6oc5=O)c4C)c(=O)oc3c2C)OC1(C)C [coumermycin-A1, coumermycin A1] | 91.7 | inhibiting CMG helicase | effective CMGi | inhibit CMG activity | capable of being inhibited; also recorded: inhibiting SV40 Tag helicase | can be directly inhibited | inhibits OS tumor cells with more specificity than non-tumor cells (Hacat) | capable of being inhibited | sensitivity of multiple tumor types to CMG helicase inhibition (multiple tumor types): sensitive to low doses; DNA damage leading to Parp cleavage [3]: causes DNA damage specifically in tumor cells; inhibition of HPV18 E1 helicase [5]: is inhibited; inhibition of HPV16 E1 helicase (HPV16 E1 helicase [6]): is inhibited; inhibition of HPV16 E1 helicase (HPV16 E1 helicase [7]; helicase domain only): is inhibited; sensitivity of Hacat non-tumor cells to CMG helicase inhibition [8]: far less sensitive; inhibition of HPV31 E1 helicase [9]: is inhibited; toxicity [10]: some toxicity; RPA loading onto DNA/chromatin (RPA32 in chromatin-bound fraction) ([10]; listed as Coumermycin A1): inhibits RPA loading onto DNA/chromatin; RPA loading onto DNA/chromatin (RPA32 in chromatin-bound fraction) ([10]; listed as coumermycin A1): inhibiting RPA loading onto DNA/chromatin; OS tumor growth in mice (OS tumor; 12 day analysis): suppresses OS tumor growth in mice; OS tumor growth in mice (OS tumor; 18 day analysis): suppresses OS tumor growth in mice; inhibition of MCM assembly and activity [11]: inhibits MCM assembly and activity
CO[C@@H]1[C@@H](OC(N)=O)[C@@H](O)[C@H](Oc2ccc3c(O)c(NC(=O)c4ccc(O)c(CC=C(C)C)c4)c(=O)oc3c2C)OC1(C)C [novobiocin] | 12.5 | does not | not to inhibit the human CMG at any level of exposure |  | not | can be directly inhibited | does not inhibit any cells | not | RPA loading onto DNA/chromatin (RPA32 in chromatin-bound fraction) [10]: does not inhibit RPA at all
